Laboratory results as given in ChEMBL document CHEMBL1201862, “PubChem BioAssay data set” (2004).
Activity calls are given as the source filed them.

How the values were obtained:
[1] = target: T1, Sentrin-specific protease 8 (Homo sapiens, UniProt Q96LD8); assay: SENP8 protease inhibitors, SAR follow-up, biochemical, luminescence (AID 504501); type: functional
T1 sequence (Q96LD8 whole entry): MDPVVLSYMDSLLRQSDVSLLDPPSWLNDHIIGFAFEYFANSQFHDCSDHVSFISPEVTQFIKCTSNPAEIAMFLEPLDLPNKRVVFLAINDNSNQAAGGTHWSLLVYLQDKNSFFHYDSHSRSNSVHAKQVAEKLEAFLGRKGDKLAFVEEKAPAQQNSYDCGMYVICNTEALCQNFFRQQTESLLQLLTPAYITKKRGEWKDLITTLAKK

Caspase-3 = target: T2, Caspase-3 (Homo sapiens, UniProt P42574); assay: SAR Analysis of small molecule inhibitors of Sentrin-specific proteases (SENPs) using a Caspase-3 Selectivity assay. [Related pubchem assays (depositor defined):AID2540, AID2599, AID434973, AID489001]; type: functional
T2 sequence (P42574 whole entry): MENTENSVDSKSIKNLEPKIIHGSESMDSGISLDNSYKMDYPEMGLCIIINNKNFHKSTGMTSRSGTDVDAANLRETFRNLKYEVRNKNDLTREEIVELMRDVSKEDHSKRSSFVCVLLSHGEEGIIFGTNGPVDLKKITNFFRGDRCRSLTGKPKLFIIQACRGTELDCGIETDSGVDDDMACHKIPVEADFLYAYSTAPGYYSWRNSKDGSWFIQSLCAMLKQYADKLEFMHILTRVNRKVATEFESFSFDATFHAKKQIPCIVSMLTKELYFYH

[2] = target: T3, Sentrin-specific protease 6 (Homo sapiens, UniProt Q9GZR1); assay: SAR Analysis of small molecule inhibitors of Sentrin-specific protease 6 (SENP6) using a Luminescent assay. [Related pubchem assays (depositor defined):AID2582, AID2599]; type: functional
T3 sequence (Q9GZR1 whole entry): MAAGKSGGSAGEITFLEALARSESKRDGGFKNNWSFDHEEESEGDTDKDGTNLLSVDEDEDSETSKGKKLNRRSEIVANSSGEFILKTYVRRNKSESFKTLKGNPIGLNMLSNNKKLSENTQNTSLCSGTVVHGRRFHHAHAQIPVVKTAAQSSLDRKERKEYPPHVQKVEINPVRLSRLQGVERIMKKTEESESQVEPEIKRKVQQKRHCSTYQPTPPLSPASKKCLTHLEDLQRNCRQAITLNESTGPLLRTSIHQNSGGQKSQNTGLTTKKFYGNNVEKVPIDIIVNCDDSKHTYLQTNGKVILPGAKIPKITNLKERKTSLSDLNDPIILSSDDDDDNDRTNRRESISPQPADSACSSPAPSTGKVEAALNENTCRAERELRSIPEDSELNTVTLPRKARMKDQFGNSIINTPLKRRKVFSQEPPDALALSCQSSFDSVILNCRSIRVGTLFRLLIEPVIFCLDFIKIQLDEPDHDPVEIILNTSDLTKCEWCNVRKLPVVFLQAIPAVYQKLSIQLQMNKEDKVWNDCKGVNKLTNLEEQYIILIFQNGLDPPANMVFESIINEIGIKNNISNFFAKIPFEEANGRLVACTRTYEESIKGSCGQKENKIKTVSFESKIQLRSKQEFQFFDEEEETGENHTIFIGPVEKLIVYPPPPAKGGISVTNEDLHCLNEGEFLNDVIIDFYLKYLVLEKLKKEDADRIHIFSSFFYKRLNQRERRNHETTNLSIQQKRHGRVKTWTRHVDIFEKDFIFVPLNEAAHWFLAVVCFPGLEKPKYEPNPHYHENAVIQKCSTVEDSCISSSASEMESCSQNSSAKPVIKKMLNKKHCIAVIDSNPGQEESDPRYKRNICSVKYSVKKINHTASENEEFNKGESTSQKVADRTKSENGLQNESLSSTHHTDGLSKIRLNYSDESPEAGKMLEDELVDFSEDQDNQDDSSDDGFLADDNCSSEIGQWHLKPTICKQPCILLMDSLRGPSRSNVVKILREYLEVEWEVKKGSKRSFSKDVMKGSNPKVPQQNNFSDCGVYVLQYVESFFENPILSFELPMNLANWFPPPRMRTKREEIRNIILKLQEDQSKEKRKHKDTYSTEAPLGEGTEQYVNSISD

[3] = target: T4, Sentrin-specific protease 7 (Homo sapiens, UniProt Q9BQF6); assay: SENP7 protease inhibitors, SAR follow-up, biochemical, luminescence (AID 504497); type: functional
T4 sequence (Q9BQF6 whole entry): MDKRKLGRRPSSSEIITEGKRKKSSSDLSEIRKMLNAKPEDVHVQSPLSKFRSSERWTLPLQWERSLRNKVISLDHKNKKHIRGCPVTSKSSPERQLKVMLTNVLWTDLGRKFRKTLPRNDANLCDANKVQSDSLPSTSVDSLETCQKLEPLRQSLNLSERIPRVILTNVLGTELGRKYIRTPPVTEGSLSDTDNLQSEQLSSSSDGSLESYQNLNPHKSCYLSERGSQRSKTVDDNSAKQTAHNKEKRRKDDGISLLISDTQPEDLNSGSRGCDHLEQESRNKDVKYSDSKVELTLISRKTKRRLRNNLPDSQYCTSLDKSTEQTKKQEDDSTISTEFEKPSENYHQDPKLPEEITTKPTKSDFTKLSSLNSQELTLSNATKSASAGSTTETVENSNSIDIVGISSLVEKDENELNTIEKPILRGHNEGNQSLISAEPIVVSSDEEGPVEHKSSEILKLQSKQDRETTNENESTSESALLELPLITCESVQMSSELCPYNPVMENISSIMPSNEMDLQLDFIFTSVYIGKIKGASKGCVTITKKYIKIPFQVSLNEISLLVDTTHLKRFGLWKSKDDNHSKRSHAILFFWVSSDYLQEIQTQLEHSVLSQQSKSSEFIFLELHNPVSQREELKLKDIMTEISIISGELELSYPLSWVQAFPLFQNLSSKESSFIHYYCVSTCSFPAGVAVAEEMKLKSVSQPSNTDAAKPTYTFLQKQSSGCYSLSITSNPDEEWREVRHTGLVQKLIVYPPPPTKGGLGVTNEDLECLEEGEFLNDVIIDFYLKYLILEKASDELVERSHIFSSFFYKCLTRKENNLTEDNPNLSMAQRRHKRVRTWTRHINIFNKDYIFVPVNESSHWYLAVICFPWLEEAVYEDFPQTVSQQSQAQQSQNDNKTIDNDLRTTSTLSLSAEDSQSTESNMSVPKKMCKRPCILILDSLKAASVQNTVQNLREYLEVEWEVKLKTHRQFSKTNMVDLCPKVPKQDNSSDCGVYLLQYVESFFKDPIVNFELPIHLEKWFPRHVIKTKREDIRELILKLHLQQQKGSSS

[4] = target: Hepatocyte nuclear factor 4-alpha (Homo sapiens, UniProt P41235); type: functional, cell-based;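 also: biochemical luminescence-based dose-response counterscreen measuring inhibition of HNF4 dimerization, run alongside a screen for blockers of ABHD5–perilipin-5 interaction; split luciferase complementation of HNF4 fusion proteins in cell lysate measuring dimerization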
Hepatocyte nuclear factor 4-alpha, sequence (P41235 whole entry, the tested form may be a part): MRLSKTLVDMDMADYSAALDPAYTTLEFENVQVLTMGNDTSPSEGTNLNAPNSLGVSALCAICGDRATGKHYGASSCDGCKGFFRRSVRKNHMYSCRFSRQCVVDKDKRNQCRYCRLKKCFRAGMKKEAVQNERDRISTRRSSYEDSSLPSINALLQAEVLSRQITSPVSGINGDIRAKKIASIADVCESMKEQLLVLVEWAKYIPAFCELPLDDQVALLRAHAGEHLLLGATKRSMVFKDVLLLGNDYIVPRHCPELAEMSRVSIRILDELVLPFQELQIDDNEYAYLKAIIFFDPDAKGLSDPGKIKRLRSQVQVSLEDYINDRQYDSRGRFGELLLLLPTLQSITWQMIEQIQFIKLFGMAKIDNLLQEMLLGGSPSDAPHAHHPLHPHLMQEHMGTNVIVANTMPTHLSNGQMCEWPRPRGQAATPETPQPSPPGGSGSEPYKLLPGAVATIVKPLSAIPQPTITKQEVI

[5] = target: T1, Sentrin-specific protease 8; type: functional
[6] = target: T1, Sentrin-specific protease 8; type: functional; remark: listed apart in the source
Insulin-degrading enzyme [7] = target: T5, Insulin-degrading enzyme (Homo sapiens, UniProt P14735); assay: activators of endogenous IDE in HEK cells, dose response, cell-based, fluorescence polarization (AID 588439); type: functional
T5 sequence (P14735 whole entry): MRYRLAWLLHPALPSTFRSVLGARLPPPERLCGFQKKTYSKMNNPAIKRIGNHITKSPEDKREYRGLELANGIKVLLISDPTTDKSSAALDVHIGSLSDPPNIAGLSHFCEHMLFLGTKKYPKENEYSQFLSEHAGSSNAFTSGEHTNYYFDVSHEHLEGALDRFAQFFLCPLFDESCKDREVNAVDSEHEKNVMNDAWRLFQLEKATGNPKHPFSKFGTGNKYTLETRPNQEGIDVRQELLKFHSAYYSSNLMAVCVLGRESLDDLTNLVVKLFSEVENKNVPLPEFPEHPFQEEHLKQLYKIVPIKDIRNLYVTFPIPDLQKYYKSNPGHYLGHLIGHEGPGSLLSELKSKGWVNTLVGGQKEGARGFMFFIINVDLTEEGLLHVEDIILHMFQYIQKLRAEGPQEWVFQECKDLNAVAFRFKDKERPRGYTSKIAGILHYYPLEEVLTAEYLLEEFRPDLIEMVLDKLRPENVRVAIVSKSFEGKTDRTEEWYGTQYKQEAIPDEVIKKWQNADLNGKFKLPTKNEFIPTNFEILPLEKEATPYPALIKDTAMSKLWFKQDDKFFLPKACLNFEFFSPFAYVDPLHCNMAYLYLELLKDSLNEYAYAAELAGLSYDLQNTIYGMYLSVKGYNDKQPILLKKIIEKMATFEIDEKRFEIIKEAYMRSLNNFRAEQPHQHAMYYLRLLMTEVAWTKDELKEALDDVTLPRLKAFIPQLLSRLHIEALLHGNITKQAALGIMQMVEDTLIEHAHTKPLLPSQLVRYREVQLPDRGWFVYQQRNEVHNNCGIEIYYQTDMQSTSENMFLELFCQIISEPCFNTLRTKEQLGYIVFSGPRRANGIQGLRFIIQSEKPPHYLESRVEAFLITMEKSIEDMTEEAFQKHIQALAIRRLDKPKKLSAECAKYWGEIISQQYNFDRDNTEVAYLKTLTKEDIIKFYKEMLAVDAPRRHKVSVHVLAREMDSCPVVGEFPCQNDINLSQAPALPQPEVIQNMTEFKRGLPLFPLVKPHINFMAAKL

Insulin-degrading enzyme [8] = target: T5, Insulin-degrading enzyme; assay: activators of recombinant IDE enzyme, dose response, counter-screen for IDE activator project, biochemical, fluorescence polarization (AID 588681)
HEK293 [9] = assay: HEK cell cytotoxicity by LDH release, dose response, cytotoxicity control for IDE activator project, fluorescence, HEK cells (AID 588440); type: functional, cell-based; settings: Homo sapiens;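 also: cytotoxicity by LDH release measuring loss of membrane integrity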
HEK293 [10] = assay: optical interference in Abeta FP readout, dose response, artefact control for IDE activator project, biochemical, fluorescence polarization (AID 588442); type: functional, cell-based; settings: Homo sapiens
[11] = target: T6, Probable nicotinate-nucleotide adenylyltransferase (Staphylococcus aureus (strain N315), UniProt P65502); type: functional, Staphylococcus aureus subsp. aureus N315; settings: read-out: IC50_Mean;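 as to IC50 Mean: confirmatory dose-response retesting of NadD inhibitor hits first found in an ultra-high-throughput screen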
T6 sequence (P65502 whole entry): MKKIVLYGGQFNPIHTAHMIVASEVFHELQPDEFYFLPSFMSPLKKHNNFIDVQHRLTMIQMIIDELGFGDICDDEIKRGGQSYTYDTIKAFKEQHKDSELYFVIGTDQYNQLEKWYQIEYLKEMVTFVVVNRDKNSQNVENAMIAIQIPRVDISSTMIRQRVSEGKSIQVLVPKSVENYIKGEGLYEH

HEK293 [12] = assay: cells; type: functional, cell-based; settings: Homo sapiens
HEK293 [13] = assay: NOD1 signaling inhibitors, primary screen, cell-based, luminescence, uHTS (AID 1578); type: functional; settings: Homo sapiens
[14] = target: Nucleotide-binding oligomerization domain-containing protein 2 (Homo sapiens, UniProt Q9HC29); assay: NOD2 signaling inhibitors, cell-based, luminescence, uHTS, HEK293 (AID 1566); type: functional
Nucleotide-binding oligomerization domain-containing protein 2, sequence (Q9HC29 whole entry, the tested form may be a part): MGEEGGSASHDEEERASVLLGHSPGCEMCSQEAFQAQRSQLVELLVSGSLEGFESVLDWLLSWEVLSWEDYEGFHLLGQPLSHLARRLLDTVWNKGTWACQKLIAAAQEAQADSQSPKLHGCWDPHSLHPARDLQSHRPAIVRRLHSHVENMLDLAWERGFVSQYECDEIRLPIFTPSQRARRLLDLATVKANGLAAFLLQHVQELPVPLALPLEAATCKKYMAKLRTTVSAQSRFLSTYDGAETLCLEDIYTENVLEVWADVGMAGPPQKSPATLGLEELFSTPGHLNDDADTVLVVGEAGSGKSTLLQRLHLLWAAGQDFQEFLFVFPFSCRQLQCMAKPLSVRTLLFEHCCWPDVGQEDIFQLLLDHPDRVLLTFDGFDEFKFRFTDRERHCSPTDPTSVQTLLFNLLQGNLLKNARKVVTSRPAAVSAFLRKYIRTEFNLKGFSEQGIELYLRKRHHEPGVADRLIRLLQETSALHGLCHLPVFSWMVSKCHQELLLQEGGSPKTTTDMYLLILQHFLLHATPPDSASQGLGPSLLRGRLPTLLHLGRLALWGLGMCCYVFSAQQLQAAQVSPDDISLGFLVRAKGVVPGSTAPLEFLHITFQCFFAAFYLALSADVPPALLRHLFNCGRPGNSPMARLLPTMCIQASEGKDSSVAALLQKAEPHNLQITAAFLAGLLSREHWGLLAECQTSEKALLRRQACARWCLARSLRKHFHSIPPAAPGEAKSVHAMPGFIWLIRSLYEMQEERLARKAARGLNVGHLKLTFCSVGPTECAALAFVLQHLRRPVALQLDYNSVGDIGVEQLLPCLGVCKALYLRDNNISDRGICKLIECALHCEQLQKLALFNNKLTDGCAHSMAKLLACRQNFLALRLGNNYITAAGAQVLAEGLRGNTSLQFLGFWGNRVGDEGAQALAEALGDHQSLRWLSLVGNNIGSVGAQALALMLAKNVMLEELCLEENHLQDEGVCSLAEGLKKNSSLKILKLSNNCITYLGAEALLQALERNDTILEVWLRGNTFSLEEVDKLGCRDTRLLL

HEK293 [15] = assay: NOD2 signaling inhibitors in MDP-stimulated cells, cell-based, uHTS, luminescence (AID 2001); type: functional; settings: Homo sapiens
[16] = target: T6, Probable nicotinate-nucleotide adenylyltransferase; type: functional, Staphylococcus aureus subsp. aureus N315
HEK293 [17] = assay: cells; type: functional, cell-based; settings: Homo sapiens; remark: listed apart in the source
HEK293 [18] = assay: cells; type: functional, cell-based; settings: Homo sapiens; remark: listed apart in the source

In the case of `C(=C\c1nc(-c2ccc(N3CCOCC3)cc2)no1)/c1ccccc1`, the IC50 [1] is reported as > 99 µM (inactive), the IC50 (Caspase-3) is reported as > 99 µM (inactive) and the IC50 [2] is reported as > 99 µM (inactive). The IC50 [3] was > 99 µM (inactive).

In the case of `O=C1CC(c2ccc(Cl)cc2)Oc2ccc(Cl)cc21` (stereo unspecified), the IC50 [4] is reported as 6.14 µM (active).

In the case of `COc1ccccc1NC(=O)c1cn(C)c(=O)c2cc(OC)c(OC)cc12`, the IC50 [5] is reported as 48.1 µM (active) and the IC50 [6] is reported as 10.2 µM (active).

For `O=C(c1cnn(C(=O)c2ccco2)c1)c1cc(F)ccc1O`, the EC50 (Insulin-degrading enzyme [7]) was > 54.7 µM (inactive), the EC50 (Insulin-degrading enzyme [8]) was > 54.7 µM (inactive) and the IC50 (HEK293 [9]) was > 89.1 µM (inactive). The EC50 (HEK293 [10]) was > 54.7 µM (inactive).

`Cc1ccsc1C(=O)Nc1nc2ccc(Cl)cc2s1` was tested, and the IC50 [1] was 0.62 µM (active), the IC50 (Caspase-3) was 0.48 µM (active) and the IC50 [2] was 0.66 µM (active). The IC50 [3] was 0.75 µM (active).

In the case of `CC(OC(=O)c1ccc(Cl)nc1)C(=O)NC1(C#N)CCCCC1` (stereo unspecified), the EC50 (Insulin-degrading enzyme [7]) is reported as > 54.7 µM (inactive), the EC50 (Insulin-degrading enzyme [8]) is reported as > 54.7 µM (inactive) and the IC50 (HEK293 [9]) is reported as > 89.3 µM (inactive). For the same compound, the EC50 (HEK293 [10]) was > 54.7 µM (inactive).

In the case of `COc1ccc(C2C(C#N)=C(N)Oc3c2c(C)nn3-c2ccccc2)cc1` (stereo unspecified), the IC50 [1] is reported as > 99 µM (inactive), the IC50 (Caspase-3) is reported as > 99 µM (inactive) and the IC50 [2] is reported as 32.4 µM (active). For the same compound, the IC50 [3] was 63 µM (active).

`Cc1ccc(NS(=O)(=O)c2cc(NC(=O)c3ccc4c(c3)NC(=O)CS4)ccc2Cl)c(C)c1` was tested, and the IC50 [11] was 48.8 µM (active), the IC50 (HEK293 [12]) was > 20 µM (inactive) and the EC50 (HEK293 [13]) was 6.38 µM (active). For the same compound, the EC50 [14] was 14.3 µM (active), the IC50 (HEK293 [15]) was 7.17 µM (inactive) and the IC50 [16] was 19.5 µM (active). For the same compound, the IC50 (HEK293 [17]) was 6.3 µM (active) and the IC50 (HEK293 [18]) was 11.5 µM (active).
